Experiments:
hNGAL [1] = biological target: T1, hNGAL (Homo sapiens, UniProt P80188); assay: hNGAL-induced IL6 and Col I secretion in human cardiac fibroblasts (ELISA); assay type: cell-based; parameters: % inhibition versus hNGAL on IL-6 secretion: concentration or dose not given beside the values; settings: for IL-6 secretion: hNGAL-treated human cardiac fibroblasts, mean ± SEM
T1 construct: purchased R&D Systems
Protocol: (§1) Primary human cardiac fibroblasts (HCF) were obtained from Promocell (Heidelberg, Germany) and maintained in Fibroblast Media 3 following manufacturer’s instructions (Promocell). Cells were used between passages 5 and 7. Cells were stimulated with recombinant hNGAL (500 ng/mL, R&D Systems) or with TGFβ (10 ng/mL, R&D Systems) for 24 h. To assess cell proliferation the MTT test was used following provider’s instructions (Roche). For protein analysis. Primary Mouse Kidney Fibroblasts (MKF) were isolated from Wild Type (WT) mice. Briefly, 8 weeks old mice were sacrificed by cervical dislocation and kidneys were cleaned and rinsed in cold DPBS (Dulbecco's Phosphate-Buffered Saline). The renal cortex was minced and incubated in Dulbecco’s modified eagle medium/Nutrient mixture F-12 (DMEM/F12, Sigma) containing 1 mg/mL collagenase A (Roche) during 25 min at 37 °C. The digestion was inactivated by adding culture medium (DMEM/F12 + 10% FBS) then the cell suspension was passed through a 100-μm cell strainer. After centrifugation, the pellet (containing MKF) was diluted with culture medium then plated in 75 cm^2 culture flask. After 24 h MKF were washed with DPBS before replacement of fresh culture medium. Thereafter, culture medium was changed every 48 h. Once 70–80% confluent, MKF were trypsinized and plated in 12 or 6-well plates. For experimental use, MKF were starved with culture medium containing only 3% FBS. MKF were treated with mNGAL (500 ng/mL, R&D Systems) or with TGFβ (10 ng/mL, R&D Systems) for 6 h for gene expression analysis.
IL6 and collagen type I concentrations were measured in cardiac tissue and cell supernatants by ELISA according to the manufacturer's instructions (R&D Systems).

Aqueous solubility = assay type: physicochemical
Protocol: (§2) Several parameters have been evaluated to determine ADME-Tox profile of the compounds. Two specific toxicity assays have been performed to assess hepatoxicity and cardiotoxicity. Hepatotoxicity was evaluated in isolated hepatocytes from swiss mice and determined by the thiazolyl blue tetrazolium bromide colorimetric assay (sigma, St Louis, MO, USA). Cardiotoxicity was evaluated using the commercially available Predictor hERG fluorescence polarization kit (Thermo Fisher Scientific, Illinois, USA). Several absorption, distribution, metabolism, and excretion (ADME) assays have been carried out. The following experiments were undertaken: stability in human microsomes, binding to human plasma protein, and CYP3A4 inhibition assay (Vivid CYP3A4 assay, Thermo Fisher Scientific, Illinois, USA). Physico-chemical properties were also assessed such as aqueous solubility and chemical stability.

hERG channel = biological target: T2, hERG channel (Homo sapiens, UniProt Q12809); assay: Cardiotoxicity, Predictor hERG fluorescence polarization kit; assay type: binding
T2 construct: purchased Thermo Fisher Scientific
Protocol: as §2

CYP3A4 = biological target: T3, CYP3A4 (Homo sapiens, UniProt P08684); assay: CYP3A4 inhibition assay (Vivid CYP3A4 assay); assay type: in vitro ADME
T3 construct: purchased Thermo Fisher Scientific
Protocol: as §2

hNGAL [2] = biological target: T1, hNGAL; assay: Cell proliferation (MTT) in hNGAL-treated human cardiac fibroblasts; assay type: cell-based
Protocol: as §1
Cell proliferation was assessed using the MTT Proliferation Assay (Sigma).

[3] = test system: TGFβ-treated mouse kidney fibroblasts; assay: Specificity: gene expression in TGFβ-treated mouse kidney fibroblasts; assay type: cell-based; settings: 10 µM, Fig. S6
Protocol: as §1, with “After centrifugation, the pellet (containing MKF) was diluted with culture medium then plated in 75 cm^2 culture flask. After 24 h MKF were washed with DPBS before replacement of fresh culture medium. Thereafter, culture medium was changed every 48 h. Once 70–80% confluent, MKF were trypsinized and plated in 12 or 6-well plates. For experimental use, MKF were starved with culture medium containing only 3% FBS. MKF were treated with mNGAL (500 ng/mL, R&D Systems) or with TGFβ (10 ng/mL, R&D Systems) for 6 h for gene expression analysis.” left out
(§3) Frozen tissues (kidneys, heart) were homogenized in TRIzol (Life Technologies, Illinois, USA) using FastPrep beads (MP-Bio, CA, USA). cDNAs were generated using the Superscript II reverse transcriptase kit (Invitrogen,NY, USA), and qPCR was performed as previously described. Briefly, transcript levels were analysed in a CFX396 apparatus (Biorad). […]

mNGAL = biological target: T4, mNGAL (Mus musculus, UniProt P11672); assay: mNGAL-induced gene expression in primary mouse kidney fibroblasts (RT-PCR); assay type: cell-based
T4 construct: purchased R&D Systems
T4 sequence (P11672 21-200): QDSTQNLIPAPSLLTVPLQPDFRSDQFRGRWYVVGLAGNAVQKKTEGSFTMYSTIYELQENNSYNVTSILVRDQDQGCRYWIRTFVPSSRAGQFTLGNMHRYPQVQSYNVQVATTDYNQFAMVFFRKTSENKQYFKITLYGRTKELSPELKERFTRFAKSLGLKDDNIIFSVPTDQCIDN
Protocol: as §1
as §3, with “(Biorad). The reactions were performed in duplicate for each sample using the IQ SYBR Green supermix Kit (Biorad,CA, USA).” for “(Biorad).”

[4] = test system: isolated hepatocytes from swiss mice; assay: Hepatotoxicity, thiazolyl blue tetrazolium bromide (MTT) colorimetric assay; assay type: cell-based, mouse
Protocol: as §2

Chemical stability = assay type: physicochemical
Protocol: as §2

[5] = 10 µM, human cardiac fibroblasts, Fig. 1C

T1 sequence (P80188 21-198): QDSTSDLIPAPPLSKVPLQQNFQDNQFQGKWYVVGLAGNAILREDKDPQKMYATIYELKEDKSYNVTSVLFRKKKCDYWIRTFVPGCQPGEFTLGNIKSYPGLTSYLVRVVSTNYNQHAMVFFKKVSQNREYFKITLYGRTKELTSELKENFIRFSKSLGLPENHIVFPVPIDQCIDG
T3 sequence (P08684 whole entry): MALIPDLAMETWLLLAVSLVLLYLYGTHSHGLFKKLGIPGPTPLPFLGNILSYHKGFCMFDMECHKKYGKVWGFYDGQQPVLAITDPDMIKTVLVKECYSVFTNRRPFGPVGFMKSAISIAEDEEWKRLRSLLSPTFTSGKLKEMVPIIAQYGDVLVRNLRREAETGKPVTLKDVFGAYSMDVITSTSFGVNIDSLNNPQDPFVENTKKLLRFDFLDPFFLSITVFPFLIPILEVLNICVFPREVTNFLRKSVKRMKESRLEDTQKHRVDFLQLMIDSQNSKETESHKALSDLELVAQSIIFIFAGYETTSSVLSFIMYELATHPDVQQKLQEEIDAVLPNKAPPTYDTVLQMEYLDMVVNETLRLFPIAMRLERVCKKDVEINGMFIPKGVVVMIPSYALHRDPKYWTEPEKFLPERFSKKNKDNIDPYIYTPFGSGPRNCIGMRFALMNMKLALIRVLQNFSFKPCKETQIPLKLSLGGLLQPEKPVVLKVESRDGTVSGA
T2 sequence (Q12809 whole entry): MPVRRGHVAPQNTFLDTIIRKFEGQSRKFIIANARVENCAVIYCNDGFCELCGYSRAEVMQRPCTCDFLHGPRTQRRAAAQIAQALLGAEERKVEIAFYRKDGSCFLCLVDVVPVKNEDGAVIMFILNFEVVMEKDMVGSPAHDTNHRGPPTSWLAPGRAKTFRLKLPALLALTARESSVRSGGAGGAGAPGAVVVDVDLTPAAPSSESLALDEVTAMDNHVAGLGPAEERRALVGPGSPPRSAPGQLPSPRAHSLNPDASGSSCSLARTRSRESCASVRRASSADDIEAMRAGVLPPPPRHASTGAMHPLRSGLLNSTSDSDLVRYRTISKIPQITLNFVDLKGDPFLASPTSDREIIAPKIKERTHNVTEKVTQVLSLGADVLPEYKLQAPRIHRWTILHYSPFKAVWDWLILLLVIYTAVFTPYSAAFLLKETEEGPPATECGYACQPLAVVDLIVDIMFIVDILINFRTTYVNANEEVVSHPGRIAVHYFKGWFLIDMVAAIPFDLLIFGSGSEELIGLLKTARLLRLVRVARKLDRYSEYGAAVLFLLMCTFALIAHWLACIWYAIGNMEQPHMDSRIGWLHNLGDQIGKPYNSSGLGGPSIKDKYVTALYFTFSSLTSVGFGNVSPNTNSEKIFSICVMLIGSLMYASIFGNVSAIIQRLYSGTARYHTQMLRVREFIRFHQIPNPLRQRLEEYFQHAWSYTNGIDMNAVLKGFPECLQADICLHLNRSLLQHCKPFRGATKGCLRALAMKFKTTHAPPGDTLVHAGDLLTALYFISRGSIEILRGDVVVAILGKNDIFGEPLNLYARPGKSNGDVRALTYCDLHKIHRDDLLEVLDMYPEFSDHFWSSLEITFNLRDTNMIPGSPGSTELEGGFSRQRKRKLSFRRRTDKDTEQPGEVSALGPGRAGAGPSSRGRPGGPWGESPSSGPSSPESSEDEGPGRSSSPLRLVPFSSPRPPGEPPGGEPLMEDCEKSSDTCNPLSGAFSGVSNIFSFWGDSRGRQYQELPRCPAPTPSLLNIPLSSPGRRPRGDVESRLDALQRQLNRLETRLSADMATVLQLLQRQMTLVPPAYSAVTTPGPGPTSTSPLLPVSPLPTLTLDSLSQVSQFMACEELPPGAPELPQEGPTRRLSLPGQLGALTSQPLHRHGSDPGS

## CC(=O)c1cccc(S(=O)(=O)NCc2ccccc2-n2cccn2)c1 [GPZ614741]
hNGAL [1]; 1 µM, human cardiac fibroblasts, Fig. S3
  Increase in IL6 secretion induced by NGAL: did not prevent
hNGAL [1]; [5]
  NGAL-induced Col I secretion, in words: fully inhibited
  NGAL-induced IL6 secretion, in words: fully inhibited
hNGAL [1]; Table S1, first generation compounds, Control 1.0 ± 0.1, NGAL 2.21 ± 0.2
  IL-6 secretion: 0.86 ± 0.2
hNGAL [1]; Table S1, first generation compounds, human cardiac fibroblasts
  % inhibition versus hNGAL on IL-6 secretion: 61.1%
hNGAL [1]; Table S4, second generation compounds and parents, Control 1.00, NGAL 1.45
  IL-6 secretion: 0.59 ± 0.02
hNGAL [1]; Table S4, second generation compounds and parents, human cardiac fibroblasts
  % inhibition versus hNGAL on IL-6 secretion: 59.5%
hNGAL [1]; human cardiac fibroblasts, text on Tables S1 and S4
  Inhibitor effect on hNGAL-induced IL6 secretion, in words: important inhibitor effect
Aqueous solubility
  Solubility in aqueous buffers, in words: perfectly soluble
Aqueous solubility; Table S5
  Aquous solubility %: 100%
hERG channel
  Cardiotoxicity (hERG predictor assay), in words: nontoxic
hERG channel; Table S5, hERG predictor assay
  Cardiotoxicity % (100= no toxicity): 101.76 ± 2.48%
CYP3A4
  Processing by CYP3A4, in words: partially processed by CYP3A4
CYP3A4; Table S5
  CyP 3A4 Inhibition % (100= no inhibition): 72.21 ± 1.94%
hNGAL [2]; 10 µM, Fig. 1E
  hNGAL-induced cell proliferation, in words: blocked
hNGAL [2]; Fig. S2
  Dose–response on proliferation induced by NGAL: able to block the proliferative effects of NGAL at 1 and 10 µM, but not at lower concentrations
[3]
  Effect on TGFβ-induced gene expression of Col I, Fibronectin and IL6: no inhibitory effect
mNGAL; 1 µM, mouse kidney fibroblasts, Fig. S4
  NGAL-induced collagen I expression: prevented
mNGAL; 10 µM, MKF, mRNA, Fig. 3A
  mNGAL-induced expression of profibrotic markers (Col I, fibronectin, αSMA): inhibited
mNGAL; 10 µM, MKF, mRNA, Fig. 3B
  mNGAL-induced expression of inflammatory markers (IL6, MCP1): inhibited
[4]
  Hepatotoxicity (MTT): > 0.1 mM
[4]; Table S5, MTT
  Hepatotoxicity: > 100 µM
Chemical stability
  Stability to acidic pH, in words: fully stable
Chemical stability; Table S5
  Chemical Stability %: 103%
